ChEMBL document CHEMBL4602605, “Fluoroquinolones structural and medicinal developments (2013-2018): Where are we now?” (Bioorg Med Chem, 2019)
≈ marks a conversion by molar mass, not a printed value.

Key:
Type in all cases: functional
Pseudomonas aeruginosa [1] = experiment: Antimicrobial activity against Pseudomonas aeruginosa ATCC 9027 by agar well diffusion method
Staphylococcus aureus [2] = experiment: Antimicrobial activity against Staphylococcus aureus ATCC 6538 by agar dilution method
Escherichia coli [3] = experiment: Antimicrobial activity against Escherichia coli ATCC 8739 by agar dilution method
[4] = system: Staphylococcus epidermidis; experiment: Antimicrobial activity against methicillin-resistant Staphylococcus epidermidis 12-1 incubated for 18 to 24 hrs
Staphylococcus aureus [5] = experiment: Antimicrobial activity against methicillin-resistant Staphylococcus aureus ATCC 12-1 incubated for 18 to 24 hrs
Staphylococcus aureus [6] = experiment: Antimicrobial activity against Staphylococcus aureus ATCC 25923 incubated for 18 to 24 hrs
Pseudomonas aeruginosa [7] = experiment: Antimicrobial activity against Pseudomonas aeruginosa ATCC 12-12 incubated for 18 to 24 hrs
Escherichia coli [8] = experiment: Antimicrobial activity against Escherichia coli ATCC 25922 incubated for 18 to 24 hrs
Staphylococcus aureus [9] = experiment: Antimicrobial activity against methicillin-resistant Staphylococcus aureus clinical isolate incubated for 16 hrs by CLSI based agar dilution method
[10] = system: Staphylococcus epidermidis; experiment: Antimicrobial activity against methicillin-susceptible Staphylococcus epidermidis clinical isolate incubated for 16 hrs by CLSI based agar dilution method
Staphylococcus aureus [11] = experiment: Antimicrobial activity against methicillin-susceptible Staphylococcus aureus clinical isolate incubated for 16 hrs by CLSI based agar dilution method
Escherichia coli [12] = experiment: Antimicrobial activity against Escherichia coli ATCC 700603 incubated for 16 hrs by CLSI-based agar dilution method; details: ATCC 700603, 16 h
Klebsiella pneumoniae = experiment: Antimicrobial activity against Klebsiella pneumoniae ATCC 29522 incubated for 16 hrs by CLSI-based agar dilution method; details: ATCC 29522, 16 h
[13] = system: Staphylococcus epidermidis; experiment: Antimicrobial activity against methicillin-resistant Staphylococcus epidermidis clinical isolate incubated for 16 hrs by CLSI based agar dilution method

SMILES	MIC (Pseudomonas aeruginosa [1]) [µg/mL]	MIC (Staphylococcus aureus [2]) [µg/mL]	MIC (Escherichia coli [3]) [µg/mL]	MIC [4] [µg/mL]	MIC (Staphylococcus aureus [5]) [µg/mL]	MIC (Staphylococcus aureus [6]) [µg/mL]	MIC (Pseudomonas aeruginosa [7]) [µg/mL]	MIC (Escherichia coli [8]) [µg/mL]	MIC (Staphylococcus aureus [9]) [µg/mL]	MIC [10] [µg/mL]	MIC (Staphylococcus aureus [11]) [µg/mL]	MIC (Escherichia coli [12]) [µg/mL]	MIC (Klebsiella pneumoniae) [µg/mL]	MIC [13] [µg/mL]
CCn1cc(C(=O)O)c(=O)c2cc(F)c(N3CCNC(C)C3)c(Cl)c21.Cl (centres undefined)	128	2	31.2	–	–	–	–	–	–	–	–	–	–	–
CO/N=C1\CCN(c2c(F)cc3c(=O)c(C(=O)O)cn(C4CC4)c3c2OC)CC1NC(=O)[C@@H](N)C(C)C (some centres undefined)	–	–	–	64 (≈ 124 µM)	64 (≈ 124 µM)	0.25 (≈ 0.483 µM)	32 (≈ 61.8 µM)	4 (≈ 7.73 µM)	–	–	–	–	–	–
CO/N=C1\CCN(c2c(F)cc3c(=O)c(C(=O)O)cn(C4CC4)c3c2OC)CC1NC(=O)CN (centres undefined)	–	–	–	32 (≈ 67.3 µM)	32 (≈ 67.3 µM)	0.25 (≈ 0.526 µM)	32 (≈ 67.3 µM)	4 (≈ 8.41 µM)	–	–	–	–	–	–
CO/N=C1\CCN(c2c(F)cc3c(=O)c(C(=O)O)cn(C4CC4)c3c2OC)CC1NC(=O)[C@H](N)CO (some centres undefined)	–	–	–	64 (≈ 127 µM)	64 (≈ 127 µM)	1 (≈ 1.98 µM)	128 (≈ 253 µM)	16 (≈ 31.7 µM)	–	–	–	–	–	–
CCn1cc(C(=O)O)c(=O)c2cc(F)c(N3CCCC3)c(Cl)c21	8 (≈ 23.6 µM)	< 0.125	16 (≈ 47.2 µM)	–	–	–	–	–	–	–	–	–	–	–
N[C@@H]1CCN2c3c(F)cc4c(=O)c(C(=O)O)cn(C5CC5)c4c3CCCC[C@H]12	16 (≈ 41.5 µM)	4 (≈ 10.4 µM)	2 (≈ 5.19 µM)	–	–	–	–	–	–	–	–	–	–	–
CO/N=C1\CCN(c2c(F)cc3c(=O)c(C(=O)O)cn(C4CC4)c3c2OC)CC1NC(=O)[C@H](N)Cc1ccc(O)cc1 (some centres undefined)	–	–	–	64 (≈ 110 µM)	> 128	2 (≈ 3.44 µM)	128 (≈ 220 µM)	16 (≈ 27.5 µM)	–	–	–	–	–	–
CCC(C)[C@H](N)C(=O)NC1CN(c2c(F)cc3c(=O)c(C(=O)O)cn(C4CC4)c3c2OC)CC/C1=N\OC (some centres undefined)	–	–	–	64 (≈ 120 µM)	64 (≈ 120 µM)	0.5 (≈ 0.941 µM)	128 (≈ 241 µM)	8 (≈ 15 µM)	–	–	–	–	–	–
COc1c(N2CCCC(N(C)CC(O)Cn3cc([N+](=O)[O-])nc3C)C2)c(F)cc2c(=O)c(C(=O)O)cn(C3CC3)c12 (centres undefined)	–	–	–	–	–	–	–	–	8 (≈ 14 µM)	0.5 (≈ 0.873 µM)	0.5 (≈ 0.873 µM)	4 (≈ 6.99 µM)	2 (≈ 3.49 µM)	0.125 (≈ 0.218 µM)
CCn1cc(C(=O)O)c(=O)c2cc(F)c(N3CCCCC3)c(Cl)c21	128 (≈ 363 µM)	2 (≈ 5.67 µM)	128 (≈ 363 µM)	–	–	–	–	–	–	–	–	–	–	–
CCn1cc(C(=O)O)c(=O)c2cc(F)c(N3CCCC(C)C3)c(Cl)c21 (centres undefined)	128 (≈ 349 µM)	2 (≈ 5.45 µM)	8 (≈ 21.8 µM)	–	–	–	–	–	–	–	–	–	–	–
CCn1cc(C(=O)O)c(=O)c2cc(F)c(N3CCN(C)CC3)c(Cl)c21	1 (≈ 2.72 µM)	4 (≈ 10.9 µM)	2 (≈ 5.44 µM)	–	–	–	–	–	–	–	–	–	–	–
CO/N=C1\CCN(c2c(F)cc3c(=O)c(C(=O)O)cn(C4CC4)c3c2OC)CC1NC(=O)[C@H](C)N (some centres undefined)	–	–	–	32 (≈ 65.4 µM)	64 (≈ 131 µM)	0.125 (≈ 0.255 µM)	64 (≈ 131 µM)	4 (≈ 8.17 µM)	–	–	–	–	–	–
CO/N=C1\CCN(c2c(F)cc3c(=O)c(C(=O)O)cn(C4CC4)c3c2OC)CC1NC(=O)[C@H](N)CC(C)C (some centres undefined)	–	–	–	64 (≈ 120 µM)	64 (≈ 120 µM)	0.25 (≈ 0.47 µM)	128 (≈ 241 µM)	4 (≈ 7.52 µM)	–	–	–	–	–	–
CCn1cc(C(=O)O)c(=O)c2cc(F)c(N3CCNCC3)c(Cl)c21	32 (≈ 90.5 µM)	4 (≈ 11.3 µM)	2 (≈ 5.65 µM)	–	–	–	–	–	–	–	–	–	–	–
COc1c(N2CCN(C(O)Cn3cc([N+](=O)[O-])nc3Cl)CC2)c(F)cc2c(=O)c(C(=O)O)cn(C3CC3)c12 (centres undefined)	–	–	–	–	–	–	–	–	8 (≈ 14.5 µM)	0.25 (≈ 0.454 µM)	0.5 (≈ 0.908 µM)	4 (≈ 7.26 µM)	> 32	0.03 (≈ 0.0545 µM)
CO/N=C1\CCN(c2c(F)cc3c(=O)c(C(=O)O)cn(C4CC4)c3c2OC)CC1NC(=O)[C@H](N)Cc1ccccc1 (some centres undefined)	–	–	–	64 (≈ 113 µM)	64 (≈ 113 µM)	0.125 (≈ 0.221 µM)	128 (≈ 226 µM)	16 (≈ 28.3 µM)	–	–	–	–	–	–

SMILES	MIC (Pseudomonas aeruginosa [1]) [µg/mL]	MIC (Staphylococcus aureus [2]) [µg/mL]	MIC (Escherichia coli [3]) [µg/mL]	MIC [4] [µg/mL]	MIC (Staphylococcus aureus [5]) [µg/mL]	MIC (Staphylococcus aureus [6]) [µg/mL]	MIC (Pseudomonas aeruginosa [7]) [µg/mL]	MIC (Escherichia coli [8]) [µg/mL]	MIC (Staphylococcus aureus [9]) [µg/mL]	MIC [10] [µg/mL]	MIC (Staphylococcus aureus [11]) [µg/mL]	MIC (Escherichia coli [12]) [µg/mL]	MIC (Klebsiella pneumoniae) [µg/mL]	MIC [13] [µg/mL]
CCn1cc(C(=O)O)c(=O)c2cc(F)c(N3CCN(CC(O)Cn4cc([N+](=O)[O-])nc4Cl)CC3)nc21 (centres undefined)	–	–	–	–	–	–	–	–	32 (≈ 61.1 µM)	2 (≈ 3.82 µM)	16 (≈ 30.5 µM)	> 32	> 32	4 (≈ 7.63 µM)
CO/N=C1\CCN(c2c(F)cc3c(=O)c(C(=O)O)cn(C4CC4)c3c2OC)CC1NC(=O)[C@H](N)[C@H](C)O (some centres undefined)	–	–	–	64 (≈ 123 µM)	128 (≈ 246 µM)	2 (≈ 3.85 µM)	64 (≈ 123 µM)	16 (≈ 30.8 µM)	–	–	–	–	–	–
CCn1cc(C(=O)O)c(=O)c2cc(F)c(N3CCNC(C)C3)c(Cl)c21 (centres undefined)	4.83 (≈ 13.1 µM)	1.21 (≈ 3.29 µM)	0.3 (≈ 0.816 µM)	–	–	–	–	–	–	–	–	–	–	–
COc1c(N2CCN(CC(O)Cn3cc([N+](=O)[O-])nc3C)C(C)C2)c(F)cc2c(=O)c(C(=O)O)cn(C3CC3)c12 (centres undefined)	–	–	–	–	–	–	–	–	32 (≈ 57.3 µM)	1 (≈ 1.79 µM)	1 (≈ 1.79 µM)	8 (≈ 14.3 µM)	> 32	1 (≈ 1.79 µM)
CO/N=C1\CCN(c2c(F)cc3c(=O)c(C(=O)O)cn(C4CC4)c3c2OC)CC1NC(=O)[C@H]1CCCN1 (some centres undefined)	–	–	–	64 (≈ 124 µM)	64 (≈ 124 µM)	0.25 (≈ 0.485 µM)	64 (≈ 124 µM)	4 (≈ 7.76 µM)	–	–	–	–	–	–
CCn1cc(C(=O)O)c(=O)c2cc(F)c(N3CCN(CC(O)Cn4cc([N+](=O)[O-])nc4Cl)C(C)C3)c(F)c21 (centres undefined)	–	–	–	–	–	–	–	–	32 (≈ 57.7 µM)	2 (≈ 3.6 µM)	4 (≈ 7.21 µM)	4 (≈ 7.21 µM)	32 (≈ 57.7 µM)	0.125 (≈ 0.225 µM)
COc1c(N2C[C@H]3CCCN(C(O)Cn4cc([N+](=O)[O-])nc4Cl)[C@H]3C2)c(F)cc2c(=O)c(C(=O)O)cn(C3CC3)c12 (some centres undefined)	–	–	–	–	–	–	–	–	16 (≈ 27.1 µM)	0.25 (≈ 0.423 µM)	0.5 (≈ 0.846 µM)	2 (≈ 3.38 µM)	> 32	0.125 (≈ 0.212 µM)
COc1c(N2CCN(C[C@H](O)Cn3cc([N+](=O)[O-])nc3C)C(C)C2)c(F)cc2c(=O)c(C(=O)O)cn(C3CC3)c12 (some centres undefined)	–	–	–	–	–	–	–	–	16 (≈ 28.6 µM)	32 (≈ 57.3 µM)	32 (≈ 57.3 µM)	32 (≈ 57.3 µM)	32 (≈ 57.3 µM)	32 (≈ 57.3 µM)
CO/N=C1\CCN(c2c(F)cc3c(=O)c(C(=O)O)cn(C4CC4)c3c2OC)CC1NC(=O)CNC(=O)CN (centres undefined)	–	–	–	64 (≈ 120 µM)	> 128	4 (≈ 7.51 µM)	> 128	16 (≈ 30 µM)	–	–	–	–	–	–
CCn1cc(C(=O)O)c(=O)c2cc(F)c(N3CCCCC3)cc21	1.28 (≈ 4.02 µM)	< 0.125	32 (≈ 101 µM)	–	–	–	–	–	–	–	–	–	–	–
CCn1cc(C(=O)O)c(=O)c2cc(F)c(N3CCOCC3)cc21	128 (≈ 400 µM)	0.32 (≈ 0.999 µM)	16 (≈ 50 µM)	–	–	–	–	–	–	–	–	–	–	–
CCn1cc(C(=O)O)c(=O)c2cc(F)c(N3CCCC3)cc21	16 (≈ 52.6 µM)	0.25 (≈ 0.822 µM)	16 (≈ 52.6 µM)	–	–	–	–	–	–	–	–	–	–	–
COc1c(N2C[C@@H]3CCCN(CC(O)Cn4cc([N+](=O)[O-])nc4C)[C@@H]3C2)c(F)cc2c(=O)c(C(=O)O)cn(C3CC3)c12 (some centres undefined)	–	–	–	–	–	–	–	–	8 (≈ 13.7 µM)	0.25 (≈ 0.428 µM)	0.5 (≈ 0.855 µM)	4 (≈ 6.84 µM)	8 (≈ 13.7 µM)	0.125 (≈ 0.214 µM)
O=C(O)c1cn(C2CC2)c2nc(N3CCN(CC(O)Cn4cc([N+](=O)[O-])nc4Cl)CC3)c(F)cc2c1=O (centres undefined)	–	–	–	–	–	–	–	–	16 (≈ 29.9 µM)	2 (≈ 3.73 µM)	4 (≈ 7.46 µM)	16 (≈ 29.9 µM)	> 32	0.125 (≈ 0.233 µM)
CO/N=C1\CCN(c2c(F)cc3c(=O)c(C(=O)O)cn(C4CC4)c3c2OC)CC1NC(=O)C(C)NC(=O)C(C)N (centres undefined)	–	–	–	64 (≈ 114 µM)	> 128	4 (≈ 7.14 µM)	128 (≈ 228 µM)	32 (≈ 57.1 µM)	–	–	–	–	–	–
COc1c(N2C[C@@H]3CCCN(C[C@H](O)Cn4cc([N+](=O)[O-])nc4C)[C@@H]3C2)c(F)cc2c(=O)c(C(=O)O)cn(C3CC3)c12	–	–	–	–	–	–	–	–	2 (≈ 3.42 µM)	0.125 (≈ 0.214 µM)	0.125 (≈ 0.214 µM)	2 (≈ 3.42 µM)	1 (≈ 1.71 µM)	0.03 (≈ 0.0513 µM)
O=C(O)c1cn(CCF)c2c(F)c(N3CCN(CC(O)Cn4cc([N+](=O)[O-])nc4Cl)CC3)c(F)cc2c1=O (centres undefined)	–	–	–	–	–	–	–	–	32 (≈ 57.3 µM)	16 (≈ 28.6 µM)	16 (≈ 28.6 µM)	> 32	> 32	2 (≈ 3.58 µM)
